Test systems include EKVX NSCLC; HCT-15 colon; MALME-3M melanoma; SNB-19 CNS; HCC-2998 colon; MCF7 breast; UACC-257 melanoma; DU-145 prostate; A498 renal; SK-MEL-2 melanoma.
Common to all, as to assay: NCI-60 cell line screen, 48 h

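Cultured in 96-well plates, cells were exposed to test compound for 48 hours across five concentrations. The concentration for 50% growth inhibition is given as GI50. At the TGI there is no net growth.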

Regarding `CCCCCCNC(=O)Oc1ccc(/C(=C(\C)c2ccccc2)c2ccc(OCCN3CCCCC3)cc2)cc1`, the GI50 in the assay with EKVX NSCLC was 4.11 µM; with HCT-15 colon, 1.53 µM; in the assay with MALME-3M melanoma, 1.75 µM; with SNB-19 CNS, 4.69 µM; in the assay with HCC-2998 colon, 2.96 µM; in the assay with MCF7 breast it was 0.0428 µM. Moreover, the GI50 was 2.69 µM in the assay with UACC-257 melanoma, 3.69 µM in the assay with DU-145 prostate, 7.46 µM in the assay with A498 renal and 2 µM in the assay on SK-MEL-2 melanoma. For the same compound, the TGI in the assay with EKVX NSCLC came to 18 µM; in the assay on HCT-15 colon it was 3.52 µM; in the assay with MALME-3M melanoma it was 3.46 µM; in the assay with SNB-19 CNS, 18.2 µM; with HCC-2998 colon, 8.92 µM; in the assay with MCF7 breast, 3.64 µM. Moreover, the TGI with UACC-257 melanoma was determined as 9.16 µM; with DU-145 prostate, 15.3 µM; in the assay with A498 renal, 21.6 µM; in the assay with SK-MEL-2 melanoma it was 4.33 µM.

These data come from PubChem BioAssay (NCI).
